Test results from ChEMBL document CHEMBL1201862, “PubChem BioAssay data set” (2004).
Active and inactive are the calls of the source.

Assays:
[1] = cytotoxicity toward NIH3T3 fibroblasts, dose response, counter-screen, cell-based, ATP luminescence, mouse fibroblasts (AID 2010); assay type: functional;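 further: cells exposed to compound for about 90 hours before reading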
[2] = tested on: Streptococcus sp. 'group A'; assay: growth inhibition of control SK(-) GAS strain, dose response, counter-screen for streptokinase expression inhibitor project, luminescence, kanamycin, BacTiterGlo, confirmation (AID 1900); assay type: functional, organism-based
[3] = inhibitors of intracellular T. cruzi replication, confirmation, NIH3T3 host cells, beta-gal luminescence (AID 2044); assay type: functional, cell-based;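 further: intracellular parasites grown in NIH/3T3 mouse fibroblasts as host cells; luminescent beta-galactosidase reporter signal from transgenic T. cruzi replicating inside host cells; inhibitors lower the luminescence signal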
[4] = HEp-2 cell cytotoxicity, dose response, cytotoxicity control for RSV inhibitor project, HTS (AID 2410); assay type: functional; details: human respiratory syncytial virus
Streptococcus = assay: Group A Streptococcus viability loss, dose response, counter-screen for streptokinase expression inhibitor project, luminescence, BacTiterGlo (AID 1915); assay type: functional, organism-based;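 further: potency for reduction of bacterial viability or growth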
[5] = target: T1, RNA-binding protein pos-1 (Caenorhabditis elegans, UniProt G5EF15); assay: inhibitors of POS-1/mex-3 RNA binding, dose response, biochemical, fluorescence polarization (AID 1964);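 further: purified POS-1 fused to maltose binding protein made in E. coli; potency of compounds blocking POS-1 binding to fluorescent RNA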
T1 sequence (G5EF15 whole entry): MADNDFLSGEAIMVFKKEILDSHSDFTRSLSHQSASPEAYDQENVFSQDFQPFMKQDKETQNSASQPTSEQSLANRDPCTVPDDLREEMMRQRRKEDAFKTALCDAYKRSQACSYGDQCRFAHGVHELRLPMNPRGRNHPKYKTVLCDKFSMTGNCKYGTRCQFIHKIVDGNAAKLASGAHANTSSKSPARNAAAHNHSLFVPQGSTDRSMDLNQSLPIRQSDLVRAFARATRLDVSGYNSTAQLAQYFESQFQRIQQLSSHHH

[6] = target: T2, Zinc finger protein mex-5 (Caenorhabditis elegans, UniProt Q9XUB2); assay: MEX-5/TCR-2 RNA interaction inhibitors, dose response, biochemical, C. elegans, fluorescence polarization (AID 1960)
T2 sequence (Q9XUB2 whole entry): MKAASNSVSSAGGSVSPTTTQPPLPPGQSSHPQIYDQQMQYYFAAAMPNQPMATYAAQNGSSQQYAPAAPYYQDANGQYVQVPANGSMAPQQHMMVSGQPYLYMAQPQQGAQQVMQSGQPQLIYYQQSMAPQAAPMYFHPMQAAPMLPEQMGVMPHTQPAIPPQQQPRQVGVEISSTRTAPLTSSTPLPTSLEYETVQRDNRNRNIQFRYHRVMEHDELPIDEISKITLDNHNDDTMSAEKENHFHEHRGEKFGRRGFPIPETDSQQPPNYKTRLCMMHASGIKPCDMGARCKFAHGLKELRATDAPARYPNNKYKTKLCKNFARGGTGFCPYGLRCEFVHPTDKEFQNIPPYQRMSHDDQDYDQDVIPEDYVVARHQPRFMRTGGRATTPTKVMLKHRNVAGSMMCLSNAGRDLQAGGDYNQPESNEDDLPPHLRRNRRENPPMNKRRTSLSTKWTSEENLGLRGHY

Cytochrome P450 1A2 = target: T3, Cytochrome P450 1A2 (Homo sapiens, UniProt P05177);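 further: PubChem cytochrome P450 panel assay, CYP1A2 panel member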
T3 sequence (P05177 whole entry): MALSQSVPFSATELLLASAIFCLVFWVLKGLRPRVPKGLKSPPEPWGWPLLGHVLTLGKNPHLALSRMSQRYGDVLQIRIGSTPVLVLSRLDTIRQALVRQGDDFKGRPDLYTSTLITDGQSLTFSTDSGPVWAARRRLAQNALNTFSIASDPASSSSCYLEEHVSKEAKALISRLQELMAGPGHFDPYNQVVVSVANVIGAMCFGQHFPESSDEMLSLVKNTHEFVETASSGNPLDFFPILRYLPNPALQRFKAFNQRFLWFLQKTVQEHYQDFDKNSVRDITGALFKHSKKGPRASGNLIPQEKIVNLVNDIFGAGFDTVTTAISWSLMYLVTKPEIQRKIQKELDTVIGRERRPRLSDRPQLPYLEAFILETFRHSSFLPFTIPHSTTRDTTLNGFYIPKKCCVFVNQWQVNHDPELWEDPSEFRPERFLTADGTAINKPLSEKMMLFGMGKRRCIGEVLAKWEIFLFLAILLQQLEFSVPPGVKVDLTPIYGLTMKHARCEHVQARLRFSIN

Cytochrome P450 2D6 = Cytochrome P450 2D6 (Homo sapiens, UniProt P10635);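 further: CYP2D6 member of a cytochrome P450 panel assay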
Cytochrome P450 2D6, sequence (P10635 whole entry): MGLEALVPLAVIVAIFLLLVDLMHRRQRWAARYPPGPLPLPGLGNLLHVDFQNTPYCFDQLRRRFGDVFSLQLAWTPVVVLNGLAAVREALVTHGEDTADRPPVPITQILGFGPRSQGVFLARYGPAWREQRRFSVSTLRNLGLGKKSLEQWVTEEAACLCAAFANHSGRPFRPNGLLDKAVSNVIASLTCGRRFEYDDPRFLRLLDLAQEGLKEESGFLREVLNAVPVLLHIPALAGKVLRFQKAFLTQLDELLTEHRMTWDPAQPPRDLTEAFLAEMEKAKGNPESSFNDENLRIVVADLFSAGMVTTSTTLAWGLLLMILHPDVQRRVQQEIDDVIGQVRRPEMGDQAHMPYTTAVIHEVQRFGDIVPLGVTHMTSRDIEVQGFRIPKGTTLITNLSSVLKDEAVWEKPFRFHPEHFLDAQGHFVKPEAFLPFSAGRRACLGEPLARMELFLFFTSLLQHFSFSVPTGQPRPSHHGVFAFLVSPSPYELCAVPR

[7] = target: T4, Rac GTPase-activating protein 1 (Homo sapiens, UniProt Q9H0H5); assay: MgcRacGAP GTPase-activating activity inhibitors, confirmation, biochemical, ADP Hunter fluorescence, primary and confirmatory (AID 624330); assay type: functional
T4 sequence (Q9H0H5 whole entry): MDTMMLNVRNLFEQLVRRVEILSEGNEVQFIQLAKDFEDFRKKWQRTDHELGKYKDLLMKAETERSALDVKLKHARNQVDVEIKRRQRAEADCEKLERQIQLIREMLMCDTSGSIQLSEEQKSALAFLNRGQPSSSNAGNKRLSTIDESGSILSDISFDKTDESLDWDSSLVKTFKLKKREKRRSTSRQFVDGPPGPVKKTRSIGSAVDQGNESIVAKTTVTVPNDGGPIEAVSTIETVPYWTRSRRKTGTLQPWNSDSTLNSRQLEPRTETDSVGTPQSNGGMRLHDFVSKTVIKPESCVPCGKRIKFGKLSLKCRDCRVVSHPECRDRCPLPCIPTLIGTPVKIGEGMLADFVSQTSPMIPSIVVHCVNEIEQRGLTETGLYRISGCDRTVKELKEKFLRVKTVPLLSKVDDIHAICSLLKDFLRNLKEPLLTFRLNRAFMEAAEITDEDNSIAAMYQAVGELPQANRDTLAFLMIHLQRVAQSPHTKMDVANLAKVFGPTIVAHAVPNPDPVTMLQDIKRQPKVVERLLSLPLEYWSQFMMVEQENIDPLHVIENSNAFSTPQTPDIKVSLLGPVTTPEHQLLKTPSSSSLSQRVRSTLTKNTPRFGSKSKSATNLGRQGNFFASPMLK

Cytochrome P450 2C19 = Cytochrome P450 2C19 (Homo sapiens, UniProt P33261); assay: Cytochrome panel assay with activity outcomes. Panel member name: p450-cyp2c19 Compounds with AC50 equal or less than 10 uM are considered active; assay type: functional
Cytochrome P450 2C19, sequence (P33261 whole entry): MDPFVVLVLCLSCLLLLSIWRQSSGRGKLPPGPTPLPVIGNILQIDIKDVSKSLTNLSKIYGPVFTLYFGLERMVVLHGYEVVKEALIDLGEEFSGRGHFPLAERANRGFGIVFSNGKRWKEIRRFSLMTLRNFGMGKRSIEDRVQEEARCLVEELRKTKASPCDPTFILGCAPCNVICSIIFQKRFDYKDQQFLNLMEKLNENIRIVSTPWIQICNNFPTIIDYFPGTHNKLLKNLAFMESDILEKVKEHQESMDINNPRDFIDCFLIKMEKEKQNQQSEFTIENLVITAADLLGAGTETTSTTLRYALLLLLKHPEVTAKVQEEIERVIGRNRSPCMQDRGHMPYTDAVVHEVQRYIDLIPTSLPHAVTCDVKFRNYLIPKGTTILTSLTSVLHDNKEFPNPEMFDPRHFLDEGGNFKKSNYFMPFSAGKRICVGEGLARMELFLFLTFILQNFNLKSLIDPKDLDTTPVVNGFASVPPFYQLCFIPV

O=[N+]([O-])c1ccc(/C=N/Nc2nc(N3CCCCCC3)nc(N3CCCCCC3)n2)o1
EC50 [1]: > 60 µM (not active)
EC50 [2]: 0.504 µM (active)
EC50 [3]: 0.197 µM (active)
CC50 [4]: 11.6 µM (active)
EC50 (Streptococcus): 2.35 µM (active)

CC1(OC(=O)c2ccco2)C(=O)C=C2C=C(c3ccc(C#N)cc3)OC=C2C1=O (stereo not drawn)
EC50 [5]: 52.2 µM (active)
EC50 [6]: 28.9 µM (active)

COc1ccc(-n2c(N)c(C(=O)Nc3c(C)n(C)n(-c4ccccc4)c3=O)c3nc4ccccc4nc32)cc1
CC50 [4]: > 50 µM (active)

Cc1ccc2cccc(S(=O)(=O)N3CCN(c4cccc(Cl)c4)CC3)c2n1
CC50 [4]: 46.9 µM (active)

O=C1c2ccccc2S(=O)(=O)N1CCCCN1CCN(c2ncccn2)CC1 [IPSAPIRONE]
AC50 (Cytochrome P450 1A2): 31.6 µM (inconclusive)
AC50 (Cytochrome P450 2D6): 20 µM (inconclusive)

CCO[C@H]1OC(C(=O)Nc2ccccc2)=C[C@@H](c2ccc(C(F)(F)F)cc2)[C@@H]1CCCO
CC50 [4]: 17.5 µM (active)

Cc1ccc(NC(=O)/C(=C\c2ccc3c(c2)OCO3)NC(=O)c2ccco2)cc1
AC50 (Cytochrome P450 1A2): 11.2 µM (inconclusive)
AC50 (Cytochrome P450 2D6): 15.8 µM (inconclusive)

Cc1cc(C)nc(N/N=C/c2c[nH]c3ccccc23)n1
IC50 [7]: 63.2 µM (active)

Clc1ccc(OCC#CCN2CCCCCC2)cc1
IC50 [7]: 184 µM (active)

N#CC1=C(N)OC2=C(CC/C2=C\c2ccc(F)cc2)C1c1ccc(F)cc1 (stereo not drawn)
CC50 [4]: 8.44 µM (active)

Cc1ccc2nc3c(cc(C(=O)NCC4CCCO4)c(=N)n3C3CCCC3)c(=O)n2c1 (stereo not drawn)
EC50 [5]: > 300 µM (not active)
EC50 [6]: > 300 µM (not active)

CC(C)CC(=O)C[C@H](O)C(Cl)(Cl)Cl
AC50 (Cytochrome P450 2C19; read-out: AC50): 7.94 µM (inconclusive)

COc1cc2[nH]c(C(=O)NN)c(N)c2cc1OC
EC50 [5]: 117 µM (active)
EC50 [6]: 18.5 µM (active)

NC(=O)C1CCN(C(=O)CN2C(=O)c3ccccc3S2(=O)=O)CC1
AC50 (Cytochrome P450 2C19; read-out: AC50): 14.1 µM (inconclusive)

COc1cc(C(=O)NCCC(=O)NCc2ccc3c(c2)OCO3)cc(OC)c1OC
AC50 (Cytochrome P450 2C19; read-out: AC50): 28.2 µM (inconclusive)
AC50 (Cytochrome P450 2D6): 25.1 µM (inconclusive)

O=C(O)CSc1ncnc2sc3c(c12)CCC3
AC50 (Cytochrome P450 1A2): 28.2 µM (inconclusive)
AC50 (Cytochrome P450 2C19; read-out: AC50): 39.8 µM (inconclusive)

COc1ccc(CCNC(=O)c2ccc3c(=O)n(Cc4ccco4)c(=S)[nH]c3c2)cc1OC
AC50 (Cytochrome P450 2C19; read-out: AC50): 7.94 µM (inconclusive)

C#CCCCO/N=C1/C[C@@H](O)[C@@H](O)[C@@H]2[C@@H]3C(=O)N(Cc4ccccc4)C(=O)[C@H]3CC[C@H]12
AC50 (Cytochrome P450 2C19; read-out: AC50): 5.01 µM (inconclusive)

Cc1ccc(C)c(N(C)C(=O)c2coc(=O)c3ccccc23)c1
EC50 [5]: > 300 µM (not active)
EC50 [6]: > 300 µM (not active)

COc1ccccc1CCC(=O)OCc1csc(CC(=O)Nc2ccccc2C)n1
EC50 [5]: > 300 µM (not active)
EC50 [6]: > 300 µM (inconclusive)

c1csc(CNc2ccc3c(c2)OCCO3)c1
IC50 [7]: 46.4 µM (active)

Clc1ccccc1C(Nc1ncccn1)Nc1ncccn1
AC50 (Cytochrome P450 2C19): inconclusive

COc1cc(CN2CCC(C(=O)NC3CCCC3)CC2)cc(Br)c1O
IC50 [7]: 127 µM (active)

COC(=O)c1cccc(-n2c(C)cc(C=O)c2C)c1C
EC50 [5]: > 300 µM (not active)
EC50 [6]: > 300 µM (not active)

CCCCCCCNC(=O)C1(CC2CC(c3ccc(Cl)cc3)=NO2)CCN(C(=O)C2(C)CC2)CC1 (stereo not drawn)
CC50 [4]: 13.5 µM (active)

Cc1ccccc1C(=O)Nc1cc(-c2cc(C(C)(C)C)oc2C)nn1C
CC50 [4]: 19.7 µM (active)

Cc1ccccc1NC(=O)CN1CCC(n2nnc3ccccc32)CC1
AC50 (Cytochrome P450 2D6): 0.01 µM (inconclusive)

O=C(C1CCCN(S(=O)(=O)c2cccc3nsnc23)C1)N1CC=C(c2ccccc2)CC1 (stereo not drawn)
AC50 (Cytochrome P450 1A2): 14.1 µM (inconclusive)
AC50 (Cytochrome P450 2D6): 5.01 µM (inconclusive)

Cc1ccc(CCC(=O)Nc2ccc(N(C)C)cc2)o1
IC50 [7]: 45.1 µM (active)

Cc1ccc(S(=O)(=O)c2c(N)n(NC(=O)c3ccccc3C)c3nc4ccccc4nc23)cc1
CC50 [4]: 22.9 µM (active)

COc1cccc(-c2nc(NCCN3CCOCC3)c3ccccc3n2)c1
AC50 (Cytochrome P450 2C19; read-out: AC50): 20 µM (inconclusive)

CN1CCC2(CC1)C(C#N)=C(N)NC(S)=C2C#N
EC50 [5]: 8.05 µM (active)
EC50 [6]: 8.53 µM (active)

CCOc1cc(/C=N/NC(=O)CCCC(=O)NC2CCCCC2)ccc1O
IC50 [7]: 69.6 µM (active)

CCOc1cc(/C=N\NC(=O)c2c(C)nc3ccccn23)ccc1O
IC50 [7]: 76 µM (active)

O=C(c1cnccn1)N1CCC2(CCCN(Cc3ccccc3)C2)CC1
AC50 (Cytochrome P450 2D6): 7.94 µM (inconclusive)

Nc1ccccc1Nc1cc(-c2ccccc2)nn1-c1cccc(Cl)c1
EC50 [1]: > 60 µM (not active)
EC50 [3]: 5.32 µM (active)
CC50 [4]: 26.3 µM (active)

CCN(CC)c1ccc(NC(=O)CN(C)Cc2cccs2)cc1
IC50 [7]: 90.9 µM (active)

O=C(Nc1cccc(F)c1)N1CC2(CCN(C(=O)c3ccncc3)CC2)C1
AC50 (Cytochrome P450 2C19): inconclusive

CCc1c(C(=O)NCc2ccccc2Cl)[nH]c(C)c1C(C)=O
CC50 [4]: > 50 µM (active)

CCCN(Cc1nnc(-c2ccccc2Cl)o1)C(=O)c1oc2ccccc2c1C
CC50 [4]: 19.6 µM (active)

CC(C)(C)OC(=O)NCCCCCNC(=O)c1[nH]cnc1C(=O)N[C@@H](Cc1ccccc1)C(=O)OCc1ccccc1
CC50 [4]: 12.5 µM (active)

Cc1c(C(=O)NCCSCc2c(F)cccc2Cl)cnn1-c1ccc(Cl)cc1
CC50 [4]: 16.8 µM (active)

COc1ccc(N2CCN(c3ncccn3)CC2)cc1
IC50 [7]: 82.9 µM (active)

O=S(=O)(c1ccc(Cl)s1)N1CCc2ccccc2C1
AC50 (Cytochrome P450 1A2): 25.1 µM (inconclusive)
AC50 (Cytochrome P450 2D6): 31.6 µM (inconclusive)
